# The supplement of paper PMC10307832
# Legend:
# Assay in all cases: relative viability (nuclei count vs DMSO), 5 days (fraction); higher = more cells survive
# [1] = compound: CS(=O)(=O)c1ccc(C(=O)Nc2ccc(Cl)c(-c3ccccn3)c2)c(Cl)c1 [Vismodegib] + O=C(CCCCCCC(=O)Nc1ccccc1)NO [Vorinostat] (partner 1 µM)
# Summary of the method: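 Five library-drug doses in √10 steps were combined with a fixed anchor-drug dose, or a single drug was given alone, by pin tool to lung cancer cell lines in 1536-well plates the day after seeding. Nuclei were stained and counted after 5 days. Relative viability is the nuclei count in treated wells over that in vehicle wells, taken as the median of duplicate plates.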
# [2] = compound: N#CC[C@H](C1CCCC1)n1cc(-c2ncnc3[nH]ccc23)cn1 [Ruxolitinib]
# Summary of the method: (§1)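 In 1536-well plates, lung cancer cell lines rested overnight at 37 °C before five library-drug doses (not always all listed), √10 apart, were pinned onto vehicle-anchored plates. Nuclei were counted with MetaXpress from 4× Hoechst images taken after 5 days without medium change. Viability compares treated-well with vehicle-well nuclei as a median over plates, and plates needed control CV below 25% plus at least one doubling to pass.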
# [3] = compound: CS(=O)(=O)c1ccc(C(=O)Nc2ccc(Cl)c(-c3ccccn3)c2)c(Cl)c1 [Vismodegib]
# Summary of the method: as §1
# [4] = compound: CS(=O)(=O)c1ccc(-c2cnc(N)c(C(=O)Nc3ccccc3)n2)cc1 [VE-821]
# Summary of the method: as §1
cell line,measurement,setting,value
UMC-11,relative viability,[1]; first compound 0.08 µM,0.392
same,relative viability,[1]; first compound 0.253 µM,0.373
same,relative viability,[1]; first compound 0.8 µM,0.415
same,relative viability,[1]; first compound 2.53 µM,0.35
same,relative viability,[1]; first compound 8 µM,0.462
same,relative viability,[2]; 0.08 µM,0.954
same,relative viability,[2]; 0.253 µM,0.999
same,relative viability,[2]; 0.8 µM,1.1
same,relative viability,[2]; 2.53 µM,1.13
same,relative viability,[2]; 8 µM,1.04
same,relative viability,[3]; 0.08 µM,0.897
same,relative viability,[3]; 0.253 µM,0.919
same,relative viability,[3]; 0.8 µM,1
same,relative viability,[3]; 2.53 µM,0.947
same,relative viability,[3]; 8 µM,0.834
same,relative viability,[4]; 0.08 µM,1.08
same,relative viability,[4]; 0.253 µM,0.915
same,relative viability,[4]; 0.8 µM,0.948
same,relative viability,[4]; 2.53 µM,1.04
same,relative viability,[4]; 8 µM,0.531
